# Legend:
# β 2c/2i (trypsin-like) = experiment: Cell-Based Proteasome Activity/Selectivity Assay (Ramos cells), substrate (KQL)2Rh110; details: β 2c/2i substrate (KQL)2Rh110, highest concentration tested 20 μM
# Source text: (§1) Cell-Based Proteasome Activity/Selectivity Assay
# (§2) The Cell-Based Proteasome subunit activity/selectivity assay was a panel of 5 fluorogenic assays that independently measured the activity of β5c or β 5i (chymotrypsin-like activity), β 2c/2i (trypsin-like), and β 1c or β 1i (caspase-like) protease activity associated with the proteasome complex in cultured cells. Specifically, the following substrates were used for respective subunit activities: β 1i: (PAL)2Rh110, β 1c: (LLE)2Rh110, β 2c/2i: (KQL)2Rh110, β 5c: (WLA)2Rh110, β 5i: (ANW)2Rh110. The following procedure was followed:
# (§3) Cell preparation: Plated 25 μl of Ramos cells (2×10^6/ml in DPBS) into half area plate (PerkinElmer Cat 6005569) to final 5×10^4 cells/well. Added 0.5 μl of 100× 4-fold serial diluted test compounds or DMSO to each well. Highest concentration of compound tested was 20 μM, thus compound serial dilution started from […]. Incubated for 30 minutes at 37° C. Then equilibrated at room temperature for 15 minutes. Added 25 μl of 2× reaction mix consisting of 0.025% digitonin, 20 μM of each substrates and 0.5M sucrose in DPBS. Shaked for one minute @ 700 rpm. Incubated for 120 min at room temperature. Then read the plates with an Envision multilabel plate reader (PerkinElmer) with 500 nm excitation/519 nm emission.
# [1] = molecular target: T1, β 5i (chymotrypsin-like activity) (Homo sapiens, UniProt P20618+P28062); experiment: Cell-Based Proteasome Activity/Selectivity Assay (Ramos cells), substrate (ANW)2Rh110; details: β 5i substrate (ANW)2Rh110, highest concentration tested 20 μM, read-out: Ic50: ramos:ac-(anw)2-r110
# T1 construct: protease activity associated with the proteasome complex in cultured cells; endogenous in cells; host or cells: Ramos cells
# Source text: as §1, §2, §3
# [2] = molecular target: T2, β5c (chymotrypsin-like activity) (Homo sapiens, UniProt P20618+P28074); experiment: Cell-Based Proteasome Activity/Selectivity Assay (Ramos cells), substrate (WLA)2Rh110; details: β 5c substrate (WLA)2Rh110, highest concentration tested 20 μM
# T2 construct: protease activity associated with the proteasome complex in cultured cells; endogenous in cells; host or cells: Ramos cells
# Source text: as §1, §2, §3
# [3] = system: IP10 level in PBMCs stimulated with CpG Type A; experiment: PBMC IP-10 Assay; assay type: cell-based; details: PBMCs stimulated with CpG Type A 2.5 μM, overnight, IP10 AlphaLISA
# Method: PBMCs were isolated from whole blood as follows: Blood was collected in a sterile environment in heparinized tubes. Blood was diluted with an equal volume PBS/2% FCS and 30 ml of this mixture was added to ACCUSPIN tubes containing 15 ml Histopaque-1077 already centrifuged at 800 g for 30 seconds and warmed up at room temperature. The tubes were then centrifuged at 800 g for 20 minutes at room temperature with no brake. The mononuclear band, just above the polyethylene frit, was removed by Pasteur pipet. These mononuclear cells were washed three times with sterile PBS, counted, and resuspended in RPMI 1640 supplemented with 10% heat inactivated fetal calf serum, 10 mM HEPES, 1 mM sodium pyruvate, penicillin (50 U/ml), streptomycin (50 μg/ml) and glutamine (2 mM) to approximately 1.5×10^6/ml. Approximately 2×10^5 cells/well were plated in 96 well tissue culture plates (BD Falcon 353072), and preincubated 60 mi/37° C. with a titration of compounds, in a final concentration of 1% DMSO. Cells were then stimulated with CpG Type A (Invivogen, Cat # tlrl-2216; ODN 2216) at a final concentration of 2.5 μM. Cells were incubated overnight, and supernatants were removed. PBMC viability of cells remaining in the well was measured with ATPlite luminescence assay (Perkin-Elmer) per the manufacturer's instructions. Luminescence was measured on the Perkin-Elmer Envision, using the luminescence filter. IP10 level was measured with CXCL10/IP10 AlphaLISA kit (Perkin-Elmer) per the manufacturer's instructions, except halving all volumes. Fluorescence was measured on the Envision Multilabel plate reader, using the AlphaScreen standard settings.
# β 1c (caspase-like) = molecular target: T3, β 1c (caspase-like) (Homo sapiens, UniProt P28072+Q99436); experiment: Cell-Based Proteasome Activity/Selectivity Assay (Ramos cells), substrate (LLE)2Rh110; details: β 1c substrate (LLE)2Rh110, highest concentration tested 20 μM
# T3 construct: protease activity associated with the proteasome complex in cultured cells; endogenous in cells; host or cells: Ramos cells
# Source text: as §1, §2, §3
# β 1i (caspase-like) = molecular target: T4, β 1i (caspase-like) (Homo sapiens, UniProt P28065+P40306); experiment: Cell-Based Proteasome Activity/Selectivity Assay (Ramos cells), substrate (PAL)2Rh110; details: β 1i substrate (PAL)2Rh110, highest concentration tested 20 μM
# T4 construct: protease activity associated with the proteasome complex in cultured cells; endogenous in cells; host or cells: Ramos cells
# Source text: as §1, §2, §3
# MRL/lpr lupus-prone mice = details: cited from earlier work
# [4] = system: Th1/17 differentiation, B cell effector functions and production of inflammatory cytokines (IL-6, TNF-α, IL-23); details: cited from earlier work
# [5] = system: DSS-induced colitis model in mice; details: cited from earlier work
# [6] = system: mouse CAIA and CIA arthritis models; details: cited from earlier work
smiles,measurement,setting,value
"COc1ccc(C(=O)NCCn2cc(C(=O)N[C@@H](CC(C)C)B(O)O)nn2)c(OC)c1OC [Example 1, (R)-3-Methyl-1-(1-(2-(2,3,4-trimethoxybenzamido)ethyl)-1H-1,2,3-triazole-4-carboxamido)butylboronic acid]",IC50,β 2c/2i (trypsin-like),> 20000 nM
same,IC50,[1],2 nM
same,IC50,[2],39 nM
same,EC50,[3],29.5 nM
same,IC50,β 1c (caspase-like),320 nM
same,IC50,β 1i (caspase-like),4 nM
"COc1ccc(C(=O)NCCn2cc(C(=O)N[C@@H](Cc3ccccc3)B(O)O)nn2)c(OC)c1OC [Example 2, (R)-2-Phenyl-1-(1-(2-(2,3,4-trimethoxybenzamido)ethyl)-1H-1,2,3-triazole-4-carboxamido)ethylboronic acid]",IC50,β 2c/2i (trypsin-like),13500 nM
same,IC50,[1],7 nM
same,IC50,[2],16 nM
same,EC50,[3],33.7 nM
same,IC50,β 1c (caspase-like),6630 nM
same,IC50,β 1i (caspase-like),25 nM
"O=C(N[C@@H](Cc1ccccc1)B(O)O)c1cn(CCNC(=O)c2ccc(C(F)(F)F)cc2F)nn1 [Example 3, (R)-1-(1-(2-(2-Fluoro-4-(trifluoromethyl)benzamido)ethyl)-1H-1,2,3-triazole-4-carboxamido)-2-phenylethylboronic acid]",IC50,β 2c/2i (trypsin-like),> 20000 nM
same,IC50,[1],2 nM
same,IC50,[2],6 nM
same,EC50,[3],26.8 nM
same,IC50,β 1c (caspase-like),7340 nM
same,IC50,β 1i (caspase-like),10 nM
"COc1cc(C(F)(F)F)ccc1C(=O)NCCn1cc(C(=O)N[C@@H](Cc2ccccc2)B(O)O)nn1 [Example 4, (R)-1-(1-(2-(2-Methoxy-4-(trifluoromethyl)benzamido)ethyl)-1H-1,2,3-triazole-4-carboxamido)-2-phenylethylboronic acid]",IC50,β 2c/2i (trypsin-like),> 20000 nM
same,IC50,[1],2 nM
same,IC50,[2],20 nM
same,EC50,[3],12.2 nM
same,IC50,β 1c (caspase-like),7480 nM
same,IC50,β 1i (caspase-like),9 nM
COc1ccc(C[C@H](NC(=O)[C@H](C)NC(=O)CN2CCOCC2)C(=O)N[C@@H](Cc2ccccc2)C(=O)[C@@]2(C)CO2)cc1 [PR-957],disease progression,MRL/lpr lupus-prone mice,prevented disease progression
same,plasma cells numbers and levels of anti-dsDNA IgG,MRL/lpr lupus-prone mice,reduced plasma cells numbers and levels of anti-dsDNA IgG
same,"block of Th1/17 differentiation, B cell effector functions and production of inflammatory cytokines",[4],potently block
same,inflammation and tissue destruction,[5],reduced inflammation and tissue destruction
same,disease score,[6],significantly decrease disease score

# — US9464098B2, “Substituted triazole boronic acid compounds” (Hoffmann-La Roche Inc., priority 2012, dated 2016)
